Test results: patent US20220132857A1, “Disinfecting Composition and Related Methods” (priority 2020, published 2022)
Like-named read-outs stand apart in the source and are kept apart here.

Columns and labels:
Pseudomonas Aeruginosa = details: within 5 minutes of contact time; cited from earlier work
Staphylococcus Aureus = details: within 5 minutes of contact time; cited from earlier work
[1] = system: residual ATP (ATP-containing contamination including bacteria); assay: ATP bioluminescence disinfection efficacy on polyester fabric contaminated with collected water; details: 5 ml dropwise, after 5 minutes, before treatment Area 1: 243, Area 2: 291
From the text: Bioluminescence is a practical and simple method used to quickly assess the bio-contamination of surfaces. The method has been developed based on the biochemical adenosine triphosphate (“ATP”), which is the energy molecule of all the living organisms, luciferin/luciferase, and oxygen. The reaction results in a light-emitting decay which can be detected and related to the amount of ATP.
The luminometer (in conjunction with ATP swabs) uses bioluminescence to detect residual ATP as an indicator of surface cleanliness. The presence of ATP on a surface indicates incomplete cleaning and the presence of ATP-containing contamination including bacteria.
Test results are presented as Relative Light Units (“RLU”). RLU is the unit of measurement used in bioluminescence. When a test swab is activated, a bioluminescent reaction occurs, generating light output. Luminometers measure and quantify that light with an RLU output. […]
The relationship between the amount of ATP on the sample and the RLU result reading on the luminometer is directly proportional to the amount of ATP collected from the sample. A high RLU reading indicates a large amount of ATP at the test location. […]
Cleaning properly results in less ATP at the location. Less ATP results in less light output during the bioluminescent reaction and consequently, a lower RLU reading. […]

[2] = system: residual ATP (ATP-containing contamination including bacteria); details: granite tile, 3 ml soaked through paper towel, after 5 minutes; before treatment Area 1: 1057, Area 2: 998
From the text: Therefore, the surfaces to be evaluated had to be thoroughly cleaned and tested for contamination prior to commencing the test.
Test results are presented as Relative Light Units (“RLU”). RLU is the unit of measurement used in bioluminescence. When a test swab is activated, a bioluminescent reaction occurs, generating light output. Luminometers measure and quantify that light with an RLU output.
A high RLU reading indicates a large amount of ATP at the test location. This in turn indicates improper cleaning and the presence of contaminants.
Cleaning properly results in less ATP at the location. Less ATP results in less light output during the bioluminescent reaction and consequently, a lower RLU reading.
A granite floor tile was selected and thoroughly disinfected with hot water and a cocktail of disinfectants. It was then tested for ATP until the readings consistently indicated RLU of 0-2 which represented a surface free of ATP within the margins of error.
A sample of seemingly contaminated water was collected from a pond and left stagnant for solid settlement for 3 days.
The granite tile was covered with a paper towel and the water was added to the towel in a dropwise manner until it was completely soaked. After a few hours, soaking was repeated, and the specimen was left to dry overnight. […]

For `OO` [0.6 wt. % hydrogen peroxide solution, hydrogen peroxide], the “reduction against Pseudomonas Aeruginosa” value (Pseudomonas Aeruginosa) is listed as < 1 Log and the “reduction against Staphylococcus Aureus” value (Staphylococcus Aureus) is listed as ~1 Log.
For `OO` [6 weight percent hydrogen peroxide solution], the “reduction against Pseudomonas Aeruginosa” value (Pseudomonas Aeruginosa) is listed as < 2 Log and the “reduction against Staphylococcus Aureus” value (Staphylococcus Aureus) is listed as ~3 Log.
With `CC(C)O` [commercial 70% Iso-Propyl Alcohol, Iso-Propyl Alcohol] the “ATP reading after treatment” value [1] was 22 RLU.
In the case of `OO` [hydrogen peroxide with no other additive, hydrogen peroxide], the “ATP reading after treatment” value [2] is reported as 82 RLU.
